System: cells
Test: MTT assay, cytotoxicity / biocompatibility (FIG. 12)
Assay type: cell-based
Conditions: cells plated on dried polymer layer; Q-PEI-PNIPAAm 20% conjugation at 1, 3 and 5%; negative control growth medium, positive control 5% DMSO
Experimental: FIG. 12 illustrates Cytotoxicity Tests of Q-PEI-PNIPAAm. An MTT assay was conducted to assess the biocompatibility of Q-PEI-PNIPAAm. Several methods were used to conduct this test. Previously, the Q-PEI-PNIPAAm polymer had been placed on top of the cells mixed with the media; however, due to the gelling nature of the sample the polymer was not in contact with the cells for long period of time. Due to this, the methodology was modified and the cells were plated on top of the polymer and then trypsinized and re-plated before conducting the test; however, trypsinizing, centrifuging and re-plating cells can lead to higher variability in number of cells per well and since the cells were not left to attached on the plates for long enough the results may be inaccurate. Finally the polymer was dissolved in alcohol, left to evaporate and then the cells were plated on top. Since the MTT measures absorbance, blanks were required for each sample. However, the layer of polymer on the plate needed to be very thin so the polymer concentration tested was 1, 3 and 5%. […] Chlorhexidine 2%, a common skin preparation solution was tested as a control.
A statistically significant difference was observed between the experimental samples, negative and positive control (cells cultured with 5% DMSO) (***indicates […], and **indicates p<0.05.).

[H]/N=C(\N/C(=N/[H])NCCCCCCNC(=N)NC(=N)Nc1ccc(Cl)cc1)Nc1ccc(Cl)cc1 [chlorhexidine] was tested, and the “Metabolic activity of cells (MTT absorbance) versus controls” value was “the same difference was obtained”.

From patent US9999224B2, “Antimicrobial reverse thermal gel and methods of forming and using same” (The Regents of the University of Colorado, a body corporate, priority 2014, dated 2018)
